Measurements reported in patent publication US20080171783A1, “COMPOSITIONS AND METHODS FOR TREATING HYPERPROLIFERATIVE DISEASE” (Migenix Inc., priority 2006, published 2008).

Each molecule was assayed against T1, Calf polymerase alpha (Bos taurus, UniProt A0AAA9TD94) (assay: Calf polymerase alpha inhibition (Replizyme kit)). Conditions: at 10 μM, single point screening.
T1 construct: purchased Replizyme Ltd (Heslington, York, UK)
T1 sequence (A0AAA9TD94 1-1441): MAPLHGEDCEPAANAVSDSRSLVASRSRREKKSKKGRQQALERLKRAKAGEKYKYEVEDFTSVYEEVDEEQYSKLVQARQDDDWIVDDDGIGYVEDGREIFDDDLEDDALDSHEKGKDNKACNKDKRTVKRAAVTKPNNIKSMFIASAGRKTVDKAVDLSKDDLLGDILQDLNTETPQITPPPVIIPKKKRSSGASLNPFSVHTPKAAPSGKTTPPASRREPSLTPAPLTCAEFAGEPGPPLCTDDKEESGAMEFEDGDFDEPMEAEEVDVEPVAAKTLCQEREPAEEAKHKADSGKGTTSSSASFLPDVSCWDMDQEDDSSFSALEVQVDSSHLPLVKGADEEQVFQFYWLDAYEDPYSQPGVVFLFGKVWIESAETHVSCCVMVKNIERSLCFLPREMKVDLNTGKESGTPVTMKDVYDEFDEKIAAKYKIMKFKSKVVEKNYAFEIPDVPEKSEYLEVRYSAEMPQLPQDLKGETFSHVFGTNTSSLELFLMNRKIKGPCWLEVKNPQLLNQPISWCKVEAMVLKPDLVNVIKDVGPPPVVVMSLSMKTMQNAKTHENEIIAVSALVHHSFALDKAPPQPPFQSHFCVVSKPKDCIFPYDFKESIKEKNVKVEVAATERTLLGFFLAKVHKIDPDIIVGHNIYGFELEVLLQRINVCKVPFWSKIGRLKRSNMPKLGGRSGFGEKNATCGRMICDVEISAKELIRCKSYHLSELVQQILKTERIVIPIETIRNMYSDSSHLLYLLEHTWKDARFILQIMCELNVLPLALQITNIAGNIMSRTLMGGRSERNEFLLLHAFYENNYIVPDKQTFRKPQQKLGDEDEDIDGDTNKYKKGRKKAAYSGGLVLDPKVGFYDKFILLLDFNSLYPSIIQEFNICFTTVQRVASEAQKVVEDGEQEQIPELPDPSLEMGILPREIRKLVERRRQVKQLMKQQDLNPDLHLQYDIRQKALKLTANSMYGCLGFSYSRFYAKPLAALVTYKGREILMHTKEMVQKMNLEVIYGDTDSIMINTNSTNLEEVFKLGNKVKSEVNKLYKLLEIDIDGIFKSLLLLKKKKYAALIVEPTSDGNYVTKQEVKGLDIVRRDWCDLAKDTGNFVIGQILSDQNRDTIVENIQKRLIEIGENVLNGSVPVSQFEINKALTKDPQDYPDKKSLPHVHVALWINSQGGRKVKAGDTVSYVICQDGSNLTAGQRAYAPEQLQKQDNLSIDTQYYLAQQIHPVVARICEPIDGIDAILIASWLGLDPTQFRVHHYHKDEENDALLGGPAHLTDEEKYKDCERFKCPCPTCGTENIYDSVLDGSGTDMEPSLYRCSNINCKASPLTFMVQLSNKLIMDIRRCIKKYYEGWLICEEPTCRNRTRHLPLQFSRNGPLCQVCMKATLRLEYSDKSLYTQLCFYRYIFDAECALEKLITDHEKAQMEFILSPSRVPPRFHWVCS
Assay type: biochemical
Method: Calf polymerase alpha and human polymerase alpha investigations were performed with a kit available from Replizyme Ltd (Heslington, York, UK).
Cc1ccc(NC(=O)[C@H](CCCCN)NC(=O)OCC2c3ccccc3-c3ccccc32)cc1 [Compound 20, (S)-(5-AMINO-1-P-TOLYLCARBAMOYL-PENTYL)-CARBAMIC ACID 9H-FLUOREN-9-YLMETHYL ESTER] gave an inhibition at 10 µM of 18%.
With NCCCC[C@H](NC(=O)OCC1c2ccccc2-c2ccccc21)C(=O)NCc1ccccc1 [Compound 21, (S)-(5-AMINO-1-BENZYLCARBAMOYL-PENTYL)-CARBAMIC ACID 9H-FLUOREN-9-YLMETHYL ESTER] the inhibition at 10 µM was 12%.
In the case of NCCCC[C@H](NC(=O)OCC1c2ccccc2-c2ccccc21)C(=O)NC1CCCCC1 [Compound 22, (S)-(5-AMINO-1-CYCLOHEXYLCARBAMOYL-PENTYL)-CARBAMIC ACID 9H-FLUOREN-9-YLMETHYL ESTER], the inhibition at 10 µM is reported as 14%.
NCCCC[C@H](NC(=O)OCC1c2ccccc2-c2ccccc21)C(=O)N(Cc1ccccc1)C1CCCCC1 [Compound 33, (S)-[5-AMINO-1-(BENZYL-CYCLOHEXYL-CARBAMOYL)-PENTYL]-CARBAMIC ACID 9H-FLUOREN-9-YLMETHYL ESTER] gave an inhibition at 10 µM of 95%.
With Cc1ccc(NC(=O)[C@H](CCCCN)NC(=O)Nc2ccc(-c3ccccc3)cc2)cc1 [Compound 40, (S)-6-AMINO-2-(3-BIPHENYL-4-YL-UREIDO)-HEXANOIC ACID P-TOLYLAMIDE] the “% Inhibition” value was 95%.
In the case of Cc1ccc(NC(=O)[C@H](CCCCN)NC(=O)C2c3ccccc3-c3ccccc32)cc1 [Compound 52, (S)-9H-FLUORENE-9-CARBOXYLIC ACID (5-AMINO-1-P-TOLYLCARBAMOYL-PENTYL)-AMIDE], the “% Inhibition” value is reported as 13%.
With Cc1ccc(NC(=O)[C@H](CCCCN)NC(=O)CC2c3ccccc3-c3ccccc32)cc1 [Compound 53, (S)-6-AMINO-2-(2-9H-FLUOREN-9-YL-ACETYLAMINO)-HEXANOIC ACID P-TOLYLAMIDE] the “% Inhibition” value was 22%.
In the case of Cc1ccc(NC(=O)[C@H](CCCCN)NC(=O)Nc2ccc(Cc3ccccc3)cc2)cc1 [Compound 74, (S)-6-AMINO-2-[3-(4-BENZYL-PHENYL)-UREIDO]-HEXANOIC ACID P-TOLYLAMIDE], the “% Inhibition” value is reported as 92%.
For Cc1ccc(N(C)C(=O)[C@H](CCCCN)NC(=O)OCC2c3ccccc3-c3ccccc32)cc1 [Compound 92, (S)-[5-AMINO-1-(METHYL-P-TOLYL-CARBAMOYL)-PENTYL]-CARBAMIC ACID 9H-FLUOREN-9-YLMETHYL ESTER], the “% Inhibition” value was 56.5%.
Work on Cc1cc2cc(NC(=O)[C@H](CCCCN)NC(=O)Nc3ccc(-c4ccccc4)cc3)ccc2[nH]1 [Compound 94, (S)-6-AMINO-2-(3-BIPHENYL-4-YL-UREIDO)-HEXANOIC ACID (2-METHYL-1H-INDOL-5-YL)-AMIDE] yielded an inhibition at 10 µM of 93%.
With Cc1ccc(NC(=O)[C@H](CN)NC(=O)OCC2c3ccccc3-c3ccccc32)cc1 [Compound 103, (S)-(2-AMINO-1-P-TOLYLCARBAMOYL-ETHYL)-CARBAMIC ACID 9H-FLUOREN-9-YLMETHYL ESTER] the “% Inhibition” value was 72%.
With Cc1ccc(NC(=O)[C@H](CCN)NC(=O)OCC2c3ccccc3-c3ccccc32)cc1 [Compound 108, (S)-(3-AMINO-1-P-TOLYLCARBAMOYL-PROPYL)-CARBAMIC ACID 9H-FLUOREN-9-YLMETHYL ESTER] the “% Inhibition” value was 84%.
With Cc1ccc(NC(=O)[C@H](CCCC[N+](C)(C)C)NC(=O)OCC2c3ccccc3-c3ccccc32)cc1 [Compound 110] the “% Inhibition” value was 62.5%.
Cc1ccc(NC(=O)[C@@H](N)CCCCN)cc1 [Compound 114, (S)-2,6-DIAMINO-HEXANOIC ACID P-TOLYLAMIDE] was tested, and the “% Inhibition” value was 17%.
NCCCCC[C@H](NC(=O)Nc1ccc(OCc2ccccc2)cc1)C(=O)Nc1ccc(C2CCCCC2)cc1 [Compound 121, (S)-7-AMINO-2-[3-(4-BENZYLOXY-PHENYL)-UREIDO]-HEPTANOIC ACID (4-CYCLOHEXYL-PHENYL)-AMIDE] was tested, and the inhibition at 10 µM was 102%.
Cc1ccc(NC(=O)[C@H](CCCCN(C)C)NC(=O)OCC2c3ccccc3-c3ccccc32)cc1 [Compound 124, (S)-(5-DIMETHYLAMINO-1-P-TOLYLCARBAMOYL-PENTYL)-CARBAMIC ACID 9H-FLUOREN-9-YLMETHYL ESTER] was tested, and the “% Inhibition” value was 79%.
With Cc1ccc(NC(=O)[C@H](CCCCN)NC(=O)NC2c3ccccc3-c3ccccc32)cc1 [Compound 126, (S)-6-AMINO-2-[3-(9H-FLUOREN-9-YL)-UREIDO]-HEXANOIC ACID P-TOLYLAMIDE] the “% Inhibition” value was 98%.
In the case of Cc1ccc(NC(=O)[C@H](CCCCN)NC(=O)Nc2cccc(-c3ccccc3)c2)cc1 [Compound 127, (S)-6-AMINO-2-(3-BIPHENYL-3-YL-UREIDO)-HEXANOIC ACID P-TOLYLAMIDE], the “% Inhibition” value is reported as 45%.
Molecule NCCCC[C@@H](NC(=O)Nc1ccc(-c2ccccc2)cc1)C(=O)Nc1ccc(C2CCCCC2)cc1 [Compound 142, (R)-6-AMINO-2-(3-BIPHENYL-4-YL-UREIDO)-HEXANOIC ACID (4-CYCLOHEXYL-PHENYL)-AMIDE] has an inhibition at 10 µM of 103%.
In the case of Cc1ccc(NC(=O)[C@H](Cc2ccc(CN)cc2)NC(=O)Nc2ccc(-c3ccccc3)cc2)cc1 [Compound 145, (S)-3-(4-AMINOMETHYL-PHENYL)-2-(3-BIPHENYL-4-YL-UREIDO)-N-P-TOLYL-PROPIONAMIDE], the “% Inhibition” value is reported as 102%.
With Cc1ccc(NC(=O)[C@H](Cc2ccc(CN)cc2)NC(=O)Nc2ccc(OCc3ccccc3)cc2)cc1 [Compound 146, (S)-3-(4-AMINOMETHYL-PHENYL)-2-[3-(4-BENZYLOXY-PHENYL)-UREIDO]-N-P-TOLYL-PROPIONAMIDE] the “% Inhibition” value was 102%.
Molecule O=C(CC1CNCCN1C(=O)Nc1ccc(OCc2ccccc2)cc1)Nc1ccc(C2CCCCC2)cc1 (stereo not shown) [Compound 163, 2-[(4-CYCLOHEXYL-PHENYLCARBAMOYL)-METHYL]-PIPERAZINE-1-CARBOXYLIC ACID (4-BENZYLOXY-PHENYL)-AMIDE] has an inhibition at 10 µM of 102%.
NCCCC[C@@H](NC(=O)Nc1ccc(OCc2ccccc2)cc1)C(=O)Nc1ccc(C2CCCCC2)cc1 [Compound 166, (R)-6-AMINO-2-[3-(4-BENZYLOXY-PHENYL)-UREIDO]-HEXANOIC ACID (4-CYCLOHEXYL-PHENYL)-AMIDE] gave an inhibition at 10 µM of 102%.
In the case of Cc1ccc(NC(=O)[C@H](CCCCNC(=O)CN)NC(=O)OCC2c3ccccc3-c3ccccc32)cc1 [Compound 176, (S)-[5-(2-AMINO-ACETYLAMINO)-1-P-TOLYLCARBAMOYL-PENTYL]-CARBAMIC ACID 9H-FLUOREN-9-YLMETHYL ESTER], the “% Inhibition” value is reported as 68%.
CC(=O)NCCCC[C@H](NC(=O)OCC1c2ccccc2-c2ccccc21)C(=O)Nc1ccc(C)cc1 [Compound 181, (S)-(5-ACETYLAMINO-1-P-TOLYLCARBAMOYL-PENTYL)-CARBAMIC ACID 9H-FLUOREN-9-YLMETHYL ESTER] was tested, and the “% Inhibition” value was 18.5%.
With Cc1ccc(NC(=O)CC2CN(C(=O)[C@H](C)N)CCN2C(=O)OCC2c3ccccc3-c3ccccc32)cc1 (stereo partly drawn) [Compound 184, 4-((S)-2-AMINO-PROPIONYL)-2-(P-TOLYLCARBAMOYL-METHYL)-PIPERAZINE-1-CARBOXYLIC ACID 9H-FLUOREN-9-YLMETHYL ESTER] the “% Inhibition” value was 38%.
In the case of CCNCC(=O)N1CCN(C(=O)OCC2c3ccccc3-c3ccccc32)C(CC(=O)Nc2ccc(C)cc2)C1 (stereo not shown) [Compound 187, 4-(2-ETHYLAMINO-ACETYL)-2-(P-TOLYLCARBAMOYL-METHYL)-PIPERAZINE-1-CARBOXYLIC ACID 9H-FLUOREN-9-YLMETHYL ESTER], the “% Inhibition” value is reported as 33.5%.
For CNCC(=O)NCCC[C@H](NC(=O)OCC1c2ccccc2-c2ccccc21)C(=O)Nc1ccc(C)cc1 [Compound 223, (S)-[4-(2-METHYLAMINO-ACETYLAMINO)-1-P-TOLYLCARBAMOYL-BUTYL]-CARBAMIC ACID 9H-FLUOREN-9-YLMETHYL ESTER], the “% Inhibition” value was 22%.
